Data set [1] concerns Pseudomonas aeruginosa. The data set is described as follows: Antimicrobial activity against Pseudomonas aeruginosa at 60 ug/disk. Format: functional. Conditions: read-out: IZ.
For data set [2], the system named is Pseudomonas aeruginosa. The data set is described as follows: Antimicrobial activity against Pseudomonas aeruginosa at 30 ug/disk. Format: functional. Conditions: read-out: IZ.
Data set [3] deals with Escherichia coli. In words: Antimicrobial activity against Escherichia coli at 30 ug/disk. In kind it is functional. Conditions: read-out: IZ.
In data set [4] the test system is Trichophyton mentagrophytes. In words: Antimicrobial activity against Trichophyton mentagrophytes at 30 ug/disk. Format: functional. The note with it: read-out: IZ.
A further data set relates to P388. The data set is described as follows: Cytotoxicity against mouse P388 cells. In kind it is functional, cell-based.
In data set [5] the test system is Bacillus subtilis. The data set is described as follows: Antimicrobial activity against Bacillus subtilis at 60 ug/disk. In kind it is functional. The note with it: read-out: IZ.
Data set [6] concerns Trichophyton mentagrophytes. The data set is described as follows: Antimicrobial activity against Trichophyton mentagrophytes at 60 ug/disk. In kind it is functional. Conditions: read-out: IZ.
A short description of data set [7]: Cytotoxicity against african green monkey BSC1 cells at 120 ug/disk. In kind it is cell-based. The note with it: chlorocebus aethiops, bsc-1.
Data set [8] in a line: Cytotoxicity against african green monkey BSC1 cells at 30 ug/disk. Format: cell-based. The note with it: chlorocebus aethiops, bsc-1.
Data set [9] in a line: Cytotoxicity against african green monkey BSC1 cells at 60 ug/disk. In kind it is cell-based. The note with it: chlorocebus aethiops, bsc-1.
Data set [10] deals with Bacillus subtilis. In words: Antimicrobial activity against Bacillus subtilis at 30 ug/disk. Format: functional. Conditions: read-out: IZ.
Data set [11] has as its system Pseudomonas aeruginosa. In words: Antimicrobial activity against Pseudomonas aeruginosa at 120 ug/disk. Format: functional. The note with it: read-out: IZ.
The test system of data set [12] is Escherichia coli. In words: Antimicrobial activity against Escherichia coli at 120 ug/disk. In kind it is functional. The note with it: read-out: IZ.
Data set [13] can be described thus: Cytotoxicity against african green monkey BSC1 cells at 15 ug/disk. Format: cell-based. Conditions: chlorocebus aethiops, bsc-1.
Data set [14] deals with Escherichia coli. In words: Antimicrobial activity against Escherichia coli at 60 ug/disk. In kind it is functional. The note with it: read-out: IZ.
Data set [15] has as its system Bacillus subtilis. The data set is described as follows: Antimicrobial activity against Bacillus subtilis at 120 ug/disk. In kind it is functional. The note with it: read-out: IZ.
The test system of data set [16] is Trichophyton mentagrophytes. In words: Antimicrobial activity against Trichophyton mentagrophytes at 120 ug/disk. In kind it is functional. The note with it: read-out: IZ.
Data set [17] has as its system Pseudomonas aeruginosa. In words: Antimicrobial activity against Pseudomonas aeruginosa at 15 ug/disk. Conditions: read-out: IZ. In kind it is functional.
Data set [18] relates to Trichophyton mentagrophytes. The data set is described as follows: Antimicrobial activity against Trichophyton mentagrophytes at 15 ug/disk. In kind it is functional. The note with it: read-out: IZ.
Data set [19] concerns Escherichia coli. The data set is described as follows: Antimicrobial activity against Escherichia coli at 15 ug/disk. Format: functional. The note with it: read-out: IZ.
In data set [20] the test system is Bacillus subtilis. In words: Antimicrobial activity against Bacillus subtilis at 15 ug/disk. In kind it is functional. The note with it: read-out: IZ.

Here are results for 5 compounds from ChEMBL document CHEMBL1146419, “Antimicrobial and cytotoxic phenolic glycoside esters from the New Zealand tree Toronia toru” (J Nat Prod, 1997).

Converted amounts (≈) assume the structure as drawn.

Broadly, the IC50 is the concentration that inhibits the measured activity by half.

Regarding `C=C(CCO)C(=O)OC[C@H]1O[C@@H](Oc2ccc(O)cc2)[C@H](O)[C@@H](O)[C@@H]1O`, the zone of inhibition at 60 µg/disc (with Pseudomonas aeruginosa [1]; with Bacillus subtilis [5]; in data set [6]; in the data set on Escherichia coli [14]) was 0 mm in each case. In addition, the zone of inhibition at 30 µg/disc (with Pseudomonas aeruginosa [2]; in the data set with Escherichia coli [3]; in data set [4]; in the data set with Bacillus subtilis [10]) was 0 mm in each case. Further, the half-inhibitory concentration (IC50) with P388 is > 25 µg/mL. In addition, the Activity in data set [7] is 100%; in data set [8] it was 100%; in [9], 100%; in data set [13], 50%. For the same compound, the zone of inhibition at 120 µg/disc (in the data set on Pseudomonas aeruginosa [11]; in the data set with Escherichia coli [12]; with Bacillus subtilis [15]; in [16]) was 0 mm throughout.

Regarding `C=C(C(=O)OC[C@H]1O[C@@H](Oc2ccc(O)cc2)[C@H](O)[C@@H](O)[C@@H]1O)[C@@H](O)CO`, the zone of inhibition at 60 µg/disc came out at 1 mm in the data set with Pseudomonas aeruginosa [1], 1 mm in the data set with Bacillus subtilis [5], 0 mm in data set [6] and 2 mm in the data set on Escherichia coli [14]. Moreover, the zone of inhibition at 30 µg/disc (in the data set with Pseudomonas aeruginosa [2]; in the data set with Escherichia coli [3]; in [4]; with Bacillus subtilis [10]) was 0 mm throughout. In addition, the IC50 in the data set on P388 is 3 µg/mL (≈ 7.76 µM). The values for the Activity in data set [7], in data set [8] and in [9] were 100%, 50% and 100%, respectively. In addition, the zone of inhibition at 120 µg/disc with Pseudomonas aeruginosa [11] turned out to be 3 mm; in the data set with Escherichia coli [12], 4 mm; in the data set with Bacillus subtilis [15], 5 mm; in data set [16] it was 5 mm.

Regarding `OC[C@H]1O[C@@H](Oc2ccc(O)cc2)[C@H](O)[C@@H](O)[C@@H]1O` [ARBUTIN], the IC50 in the data set on P388 is > 25 µg/mL. For the same compound, the Activity in [7] is on record as 50%. Further, the zone of inhibition at 120 µg/disc (in the data set on Pseudomonas aeruginosa [11]; in the data set with Escherichia coli [12]; with Bacillus subtilis [15]; in [16]) was 0 mm in each case.

Consider `Oc1ccc(O)cc1` [HYDROQUINONE], for which the zone of inhibition at 60 µg/disc in the data set on Pseudomonas aeruginosa [1] amounted to 3 mm; with Bacillus subtilis [5] it was 4 mm; in [6], 0 mm; in the data set with Escherichia coli [14] it was 0 mm. For the same compound, the zone of inhibition at 30 µg/disc in the data set on Pseudomonas aeruginosa [2] was 2 mm; in the data set with Escherichia coli [3] it was 0 mm; in data set [4] it was 0 mm; with Bacillus subtilis [10], 3 mm. In the data set with P388, this compound gave an IC50 of 3 µg/mL (≈ 27.2 µM). The Activity in data set [7] is given as 100%; in data set [8] it was 75%; in data set [9], 100%. Further, the zone of inhibition at 120 µg/disc in the data set on Pseudomonas aeruginosa [11] is 3 mm; with Escherichia coli [12], 5 mm; in the data set with Bacillus subtilis [15] it was 9 mm; in data set [16], 10 mm.

For the compound `C=C1CCOC1=O` [TULIPALINE A], the zone of inhibition at 60 µg/disc (in the data set with Pseudomonas aeruginosa [1]; in the data set with Bacillus subtilis [5]; in [6]; in the data set on Escherichia coli [14]) was 0 mm each time. Also, the zone of inhibition at 15 µg/disc (in the data set on Pseudomonas aeruginosa [17]; in [18]; in the data set with Escherichia coli [19]; in the data set with Bacillus subtilis [20]) was 0 mm throughout. For the same compound, the zone of inhibition at 30 µg/disc (in the data set with Pseudomonas aeruginosa [2]; in the data set with Escherichia coli [3]; in data set [4]; in the data set on Bacillus subtilis [10]) was 0 mm throughout. The compound further yielded an IC50 in the data set with P388 of 0.8 µg/mL (≈ 8.15 µM). The Activity in data set [7], in data set [8], in data set [9] and in [13] was 100% each time. Besides, the zone of inhibition at 120 µg/disc in the data set with Pseudomonas aeruginosa [11] stood at 4 mm; in the data set on Escherichia coli [12] it was 5 mm; in the data set on Bacillus subtilis [15], 10 mm; in data set [16], 8 mm.
